Structures can show the parent of a compound that is named as a salt.
tested on: progranulin (PGRN) secretion, BV-2 cells; test: PGRN assay: progranulin induction cellular assay (ELISA of secreted mouse PGRN); format: cell-based; details: Mus musculus, BV-2, PGRN assay, Table C; secreted mouse PGRN in cell culture medium, ELISA
How it was run: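 Progranulin induction measured in BV-2 cells plated at about 80% confluence the day before, given 1 h to attach, then incubated 16 h. Secreted mouse PGRN quantified by ELISA.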

SMILES	EC50 [nM]
COc1ncc(COc2ccc([C@H]3c4ccccc4CCN3C(=O)OCC34CCN(CC3)CC4)cc2)cn1 [Compound 2145]	2930
COc1ncc(COc2ccc([C@@H]3c4ccccc4CCN3C(=O)OCC34CCN(CC3)CC4)cc2)cn1 [Compound 2146]	1610
O=C(OCC12CCN(CC1)CC2)N1CCc2ccccc2[C@@H]1c1cc(F)c(F)c(F)c1 [Compound 2147]	4740
O=C(OCC12CCN(CC1)CC2)N1CCc2ccccc2[C@H]1c1cc(F)c(F)c(F)c1 [Compound 2148]	8830
O=C(OCC12CCN(CC1)CC2)N1CCc2ccccc2[C@@H]1c1ccc(OCc2cncnc2)cc1 [Compound 2149]	> 10000
O=C(OCC12CCN(CC1)CC2)N1CCc2ccccc2[C@H]1c1ccc(OCc2cncnc2)cc1 [Compound 2150]	9460
O=C(Nc1ccncc1)N1CCc2ccccc2[C@@H]1c1ccc(F)cc1 [Compound 2151]	1160
O=C(NCc1ccncc1)N1CCc2ccccc2[C@@H]1c1ccc(F)cc1 [Compound 2152]	6400
O=C(OCC12CCN(CC1)CC2)N1CCc2ccccc2[C@@H]1c1ccc(OCc2ncccn2)cc1 [Compound 2155]	> 10000
O=C(OCC12CCN(CC1)CC2)N1CCc2ccccc2[C@H]1c1ccc(OCc2ncccn2)cc1 [Compound 2156]	713
CN1CCC(CCOC(=O)N2CCc3ccccc3[C@@H]2c2ccc(F)cc2)CC1 [Compound 2163]	> 10000
O=C(OCC1CCNCC1)N1CCc2ccccc2[C@@H]1c1ccc(F)cc1 [Compound 2170]	1590
CN1CCC(COC(=O)N2CCc3ccccc3[C@@H]2c2ccc(F)cc2)CC1 [Compound 2173]	3220
COC(C(=O)N1CCc2ccccc2[C@@H]1c1ccc(F)cc1)C1CN2CCC1CC2 (stereo partly drawn) [Compound 2175, 1-((S)-1-(4-fluorophenyl)-3,4-dihydroisoquinolin-2(1H)-yl)-2-methoxy-2-(quinuclidin-3-yl) ethenone]	4130
O=C(NCC12CCN(CC1)CC2)N1CCc2ccccc2[C@@H]1c1ccc(F)cc1 [Compound 2178]	590
O=C(O[C@@H]1CCNC1)N1CCc2ccccc2[C@@H]1c1ccc(F)cc1 [Compound 2179, (1S)—((R)-pyrrolidin-3-yl)-1-(4-fluorophenyl)-3,4-dihydroisoquinoline-2(1H)-carboxylate]	120
CN(CC1CCNCC1)C(=O)N1CCc2ccccc2[C@@H]1c1ccc(F)cc1 [Compound 2182, 1-(4-fluorophenyl)-N-methyl-N-(piperidin-4-ylmethyl)-3,4-dihydroisoquinoline-2(1H)-carboxamide]	> 10000
CN(CC1CCNCC1)C(=O)N1CCc2ccccc2[C@H]1c1ccc(F)cc1 [Compound 2183, 1-(4-fluorophenyl)-N-methyl-N-(piperidin-4-ylmethyl)-3,4-dihydroisoquinoline-2(1H)-carboxamide]	9600
O=C(CCC1CCNCC1)N1CCc2ccccc2[C@@H]1c1ccc(F)cc1 [Compound 2184, (S)-1-(1-(4-fluorophenyl)-3,4-dihydroisoquinolin-2(1H)-yl)-3-(piperidin-4-yl)propan-1-one]	> 10000
CN1CCN(C(=O)CC(=O)N2CCc3ccccc3[C@@H]2c2ccc(F)cc2)CC1 [Compound 2189, (S)-1-(1-(4-fluorophenyl)-3,4-dihydroisoquinolin-2(1H)-yl)-3-(4-methylpiperazin-1-yl) propane-1,3-dione]	3320
C#CCOc1ccc2c(c1)[C@H](c1ccc(F)cc1)N(C(=O)NCC13CCN(CC1)CC3)CC2 [Compound 2192, (S)-1-(4-fluorophenyl)-7-(prop-2-yn-1-yloxy)-N-(quinuclidin-4-ylmethyl)-3,4-dihydroisoquinoline-2(1H)-carboxamide]	> 10000
O=C(NCC12CCN(CC1)C2)N1CCc2ccccc2[C@@H]1c1ccc(F)cc1 [Compound 2193, (S)—N-((1-azabicyclo[2.2.1]heptan-4-yl)methyl)-1-(4-fluorophenyl)-3,4-dihydroisoquinoline-2(1H)-carboxamide]	2510
C#CCN1CCC(COC(=O)N2CCc3ccccc3[C@@H]2c2ccc(F)cc2)CC1 [Compound 2194, (1-(prop-2-yn-1-yl)piperidin-4-yl)methyl (S)-1-(4-fluorophenyl)-3,4-dihydroisoquinoline-2(1H)-carboxylate]	3200
C#CCN1CCC(OC(=O)N2CCc3ccccc3[C@@H]2c2ccc(F)cc2)CC1 [Compound 2195, 1-(prop-2-yn-1-yl)piperidin-4-yl (S)-1-(4-fluorophenyl)-3,4-dihydroisoquinoline-2(1H)-carboxylate]	1700
C#CCOCCN1CCC(COC(=O)N2CCc3ccccc3[C@@H]2c2ccc(F)cc2)CC1 [Compound 2196, (1-(2-(prop-2-yn-1-yloxy)ethyl)piperidin-4-yl)methyl (S)-1-(4-fluorophenyl)-3,4-dihydroisoquinoline-2(1H)-carboxylate]	> 10000
C#CCOCCN1CCC(OC(=O)N2CCc3ccccc3[C@@H]2c2ccc(F)cc2)CC1 [Compound 2197, 1-(2-(prop-2-yn-1-yloxy)ethyl)piperidin-4-yl (S)-1-(4-fluorophenyl)-3,4-dihydroisoquinoline-2(1H)-carboxylate]	1060
O=C(N1CCc2ccccc2[C@@H]1c1ccc(F)cc1)C(F)(F)C1(O)CN2CCC1CC2 (stereo partly drawn) [Compound 2198, 2,2-difluoro-1-((S)-1-(4-fluorophenyl)-3,4-dihydroisoquinolin-2(1H)-yl)-2-(3-hydroxyquinuclidin-3-yl)ethan-1-one]	> 10000

Next, values leading:

EC50 [nM]	SMILES
> 10000	O=C(NCC1CCNCC1)N1CCc2ccccc2[C@@H]1c1ccc(F)cc1 [Compound 2165]
130	O=C(N[C@H]1CCCNC1)N1CCc2ccccc2[C@@H]1c1ccc(F)cc1 [Compound 2171]
430	O=C(N[C@@H]1CCCNC1)N1CCc2ccccc2[C@@H]1c1ccc(F)cc1 [Compound 2172]
83	O=C(O[C@H]1CCNC1)N1CCc2ccccc2[C@@H]1c1ccc(F)cc1 [Compound 2180, (1S)—((S)-pyrrolidin-3-yl)-1-(4-fluorophenyl)-3,4-dihydroisoquinoline-2(1H)-carboxylate]
400	O=C(C[C@H]1CCCNC1)N1CCc2ccccc2[C@@H]1c1ccc(F)cc1 [Compound 2187]
3210	O=C(C[C@@H]1CCCNC1)N1CCc2ccccc2[C@@H]1c1ccc(F)cc1 [Compound 2188]

same assay, conditions: Mus musculus, BV-2, PGRN assay, Table D; secreted mouse PGRN in cell culture medium, ELISA

SMILES	EC50 [nM]
O=C(O[C@H]1C[N@]2CC[C@H]1C2)N1CCc2ccccc2[C@@H]1c1ccc(F)cc1 [Compound 2204]	650
O=C(OCC[C@@H]1CN2CCC1CC2)N1CCc2ccccc2[C@@H]1c1ccc(F)cc1 [Compound 2206, 2-((S)-quinuclidin-3-yl)ethyl (S)-1-(4-fluorophenyl)-3,4-dihydroisoquinoline-2(1H)-carboxylate formate]	1990
O=C(NC1(C2CCNCC2)CC1)N1CCc2ccccc2[C@@H]1c1ccc(F)cc1 [Compound 2208]	7220
CN1CCC(C2(OC(=O)N3CCc4ccccc4[C@@H]3c3ccc(F)cc3)CC2)CC1 [Compound 2215]	2700
CN1[C@@H]2CC[C@H]1[C@@H](NC(=O)N1CCc3ccccc3[C@@H]1c1ccc(F)cc1)C2 [Compound 2224]	480
CN1[C@H]2CC[C@@H]1[C@@H](NC(=O)N1CCc3ccccc3[C@@H]1c1ccc(F)cc1)C2 [Compound 2226]	2680
CN1[C@@H]2CC[C@H]1[C@H](NC(=O)N1CCc3ccccc3[C@@H]1c1ccc(F)cc1)C2 [Compound 2227]	4150
O=C(OC[C@@H]1CCNC1)N1CCc2ccccc2[C@@H]1c1ccc(F)cc1 [Compound 2230]	1070
CN1CCC(NC(=O)N2CCc3ccccc3[C@@H]2c2ccc(F)cc2)CC1 [Compound 2238, (S)-1-(4-fluorophenyl)-N-(1-methylpiperidin-4-yl)-3,4-dihydroisoquinoline-2(1H)-carboxamide]	720

More lines, now with the values ahead:

EC50 [nM]	SMILES
730	O=C(NC[C@@H]1CNCCO1)N1CCc2ccccc2[C@@H]1c1ccc(F)cc1 [Compound 2209]
2670	O=C(NC[C@H]1CCCN1)N1CCc2ccccc2[C@@H]1c1ccc(F)cc1 [Compound 2216]
3940	O=C(NC[C@@H]1CCCN1)N1CCc2ccccc2[C@@H]1c1ccc(F)cc1 [Compound 2217]
3950	O=C(NC[C@@H]1CCCN1)N1CCc2ccccc2[C@H]1c1ccc(F)cc1 [Compound 2218]
7830	O=C(NC[C@@H]1CCCNC1)N1CCc2ccccc2[C@@H]1c1ccc(F)cc1 [Compound 2221]
940	O=C(N[C@H]1CCNC1)N1CCc2ccccc2[C@@H]1c1ccc(F)cc1 [Compound 2222]
1580	O=C(N[C@@H]1CCNC1)N1CCc2ccccc2[C@@H]1c1ccc(F)cc1 [Compound 2223]
1040	O=C(NCC1(F)CNC1)N1CCc2ccccc2[C@@H]1c1ccc(F)cc1 [Compound 2231]
430	CN1CC[C@H](NC(=O)N2CCc3ccccc3[C@@H]2c2ccc(F)cc2)C1 [Compound 2237, (S)-1-(4-fluorophenyl)-N—((S)-1-methylpyrrolidin-3-yl)-3,4-dihydroisoquinoline-2(1H)-carboxamide]
1140	O=C(OC[C@@H]1CCN1)N1CCc2ccccc2[C@@H]1c1ccc(F)cc1 [Compound 2239, (S)-(S)-azetidin-2-ylmethyl 1-(4-fluorophenyl)-3,4-dihydroisoquinoline-2(1H)-carboxylate]
2390	O=C(OC[C@H]1CCN1)N1CCc2ccccc2[C@@H]1c1ccc(F)cc1 [Compound 2240]

same assay, conditions: PGRN assay, Table C; secreted mouse PGRN in cell culture medium, ELISA

EC50 [nM]	SMILES
> 10000	O=C(OC1CCNCC1)N1CCc2ccccc2[C@@H]1c1ccc(F)cc1 [Compound 2161]
> 10000	O=C(OC1CNC1)N1CCc2ccccc2[C@@H]1c1ccc(F)cc1 [Compound 2162]
290	O=C(OC1CCNCC1)N1CCc2ccccc2[C@@H]1c1ccc(F)cc1 [Compound 2176]
> 3160	O=C(OC1CNC1)N1CCc2ccccc2[C@@H]1c1ccc(F)cc1 [Compound 2177]

Source: patent publication US20220251084A1, “PROGRANULIN MODULATORS AND METHODS OF USING THE SAME” (ARKUDA THERAPEUTICS, priority 2019, published 2022)
